The values below come from US10029986B2, “Alkynyl pyridine-substituted amide compound and pesticide” (NISSAN CHEMICAL INDUSTRIES, LTD., priority 2014, dated 2018).

The subject of data set [1] is Erysiphe polygoni (synonym: Erysiphe betae). Nature of the data set: Test on the preventive effect against cucumber powdery mildew. It counts as in vivo. The settings on record: 216 h, 5 ml per pot sprayed, cucumber cotyledon stage, 9 days after inoculation; for pest or weed control at 500 µg/mL: test solution A 500 ppm. As to the method: Compounds of the present invention were dissolved in a solvent for emulsion (a mixture of Sorpol (registered trademark) 3005XL (manufactured by Toho Chemical Industry Co., Ltd.): N-methylpyrrolidone: Solvesso (registered trademark) 200 (manufactured by ExxonMobil Chemical) in a ratio of 1:5:2) to prepare 20 wt % emulsifiable concentrates. Then, distilled water was added to dilute the emulsifiable concentrates to the prescribed concentration (500 ppm), and the obtained solutions were used in the following the Test Examples 1 to 8. Cucumber (varieties: Sagami Hanjiro) was seeded in 90 cm^3 plastic pot, and at the cotyledon stage, 5 ml per pot of test solution A of the compounds of the present invention was sprayed. After drying in air, the pot was placed in an air-conditioned greenhouse (20° C.), and a suspension of conidium of Erysiphe polygoni (synonym: Erysiphe betae) was sprayed. After the pot were replaced at the same temperature for 9 days, the proportion of the formed lesion in the inoculated leaves were counted to calculate the control value in accordance with the following formula. The test was carried out in duplicate. Control value=[1−(lesion area ratio in treated plot/lesion are a ratio in non-treated plot)]×100

The subject of data set [2] is Phaeosphaeria nodorum (Synonym: Septoria nodorum). Briefly: Test on the preventive effect against wheat glume blotch. The class given is in vivo. The settings on record: Parastagonospora nodorum, 144 h, 5 ml per pot, wheat 1.3-leaf stage, 2 days inoculation chamber then 6 days at 20° C.; for pest or weed control at 500 µg/mL: test solution A 500 ppm. As to the method: Compounds of the present invention were dissolved in a solvent for emulsion (a mixture of Sorpol (registered trademark) 3005XL (manufactured by Toho Chemical Industry Co., Ltd.): N-methylpyrrolidone: Solvesso (registered trademark) 200 (manufactured by ExxonMobil Chemical) in a ratio of 1:5:2) to prepare 20 wt % emulsifiable concentrates. Then, distilled water was added to dilute the emulsifiable concentrates to the prescribed concentration (500 ppm), and the obtained solutions were used in the following the Test Examples 1 to 8. Wheat (varieties: Haruyutaka) was seeded in 90 cm^3 plastic pot, and at 1.3-leaf stage, 5 ml per pot of test solution A of the compounds of the present invention was applied. One day after treatment, a suspension of conidium of Phaeosphaeria nodorum (Synonym: Septoria nodorum) was sprayed to the wheat, and the pot was left in the inoculation chamber at 20° C. under humidity of 100% RH for 2 days. Then, the pot was placed in an air-conditioned greenhouse (20° C.) for 6 days. The proportion of the formed lesion in the inoculated leaves were measured to calculate the control value in accordance with the same formula as in the Test Example 1. The test was carried out in duplicate.

The subject of data set [3] is Botrytis cinerea. Nature of the data set: Test on the preventive effect against cucumber gray mold (spore inoculation). The settings on record: 72 h, 5 ml per pot, cucumber cut leaves, conidium inoculation, 3 days at 20° C.; for pest or weed control at 500 µg/mL: test solution A 500 ppm. The class given is in vivo. How it is done: Compounds of the present invention were dissolved in a solvent for emulsion (a mixture of Sorpol (registered trademark) 3005XL (manufactured by Toho Chemical Industry Co., Ltd.): N-methylpyrrolidone: Solvesso (registered trademark) 200 (manufactured by ExxonMobil Chemical) in a ratio of 1:5:2) to prepare 20 wt % emulsifiable concentrates. Then, distilled water was added to dilute the emulsifiable concentrates to the prescribed concentration (500 ppm), and the obtained solutions were used in the following the Test Examples 1 to 8. Cucumber (varieties: Sagami Hanjiro) was seeded in 90 cm^3 plastic pot, and at the cotyledon stage, 5 ml per pot of test solution A of the compounds of the present invention was applied. After drying in air, the treated leaves were cut and transferred in plastic containers. 30 μl of a mixture of a suspension of conidium of Botrytis cinerea and a dissolved PDA medium in a ratio of 1:1 was dropped on each treated leaf and inoculated. After the inoculation, the plastic containers were placed in 20° C. with humid conditions for 3 days, and the proportion of the formed lesion in the inoculated leaves were counted to calculate the control value in accordance with the same formula as in the Test Example 1. The test was carried out in duplicate.

For another data set, the system named is Sclerotinia sclerotiorum. Nature of the data set: Test on the preventive effect against cucumber stem rot. The settings on record: 48 h, 5 ml per pot, agar block inoculation, 2 days at 20° C.; for pest or weed control at 500 µg/mL: test solution A 500 ppm. The class given is in vivo. As to the method: (§1) Compounds of the present invention were dissolved in a solvent for emulsion (a mixture of Sorpol (registered trademark) 3005XL (manufactured by Toho Chemical Industry Co., Ltd.): N-methylpyrrolidone: Solvesso (registered trademark) 200 (manufactured by ExxonMobil Chemical) in a ratio of 1:5:2) to prepare 20 wt % emulsifiable concentrates. Then, distilled water was added to dilute the emulsifiable concentrates to the prescribed concentration (500 ppm), and the obtained solutions were used in the following the Test Examples 1 to 8. Cucumber (varieties: Sagami Hanjiro) was seeded in 90 cm^3 plastic pot, and at the cotyledon stage, 5 ml per pot of test solution A of the compounds of the present invention was applied. After drying in air, the pot was transferred in a plastic container, and an agar blocks (diameter: 5 mm) containing Sclerotinia sclerotiorum which was preliminarily cultivated in a PDA medium was inoculated to the seed leaves of the cucumber treated with the solution. After the inoculation, the plastic container was covered with a plastic sheet, and placed at 20° C. and humidified for 2 days, thus the proportion of the formed lesion in the inoculated leaves were measured to calculate the control value in accordance with the same formula as in the Test Example 1. The test was carried out in duplicate.

Data set [4] deals with Southern root-knot nematode (Meloidogyne incoqnita). Briefly: Insecticidal test against Southern root-knot nematode (eggs, 96 well plate). The class given is in vivo. The settings on record: 96 h, test solution B 100 ppm, 10 μl per well, 25° C. dark, 4 days after treatment, read-out: efficacy (unhatched eggs + inactive larvae relative to non-treated). How it is done:
(§2) Compounds of the present invention were dissolved in dimethyl sulfoxide to prepare 1 wt % solutions. Then, distilled water was added to dilute the solutions to the prescribed concentration (100 ppm), and the obtained solutions were used in the following the Test Examples 9 to 12. 60 μl of a potato dextrose 1% agar medium was added to each well of a 96 well plate, and 30 μl of sterilized water containing eggs of Southern root-knot nematode (Meloidogyne incoqnita) (10 eggs/3 μl) was added to each well. Further, 10 μl per well of test solution B of the compounds of the present invention was added, and the plate was left at rest at 25° C. under dark conditions.

The subject of data set [5] is Barber pole worm (Haemonchus contortus). Nature of the data set: Insecticidal test against Barber pole worm (eggs, 96 well plate). It counts as in vivo. The settings on record: 96 h, test solution B 100 ppm, 10 μl per well, 25° C. dark, 4 days after treatment, read-out: efficacy (unhatched eggs and inactive larvae relative to non-treated). How it is done: as §2, with “Barber pole worm (Haemonchus contortus)” for “Southern root-knot nematode (Meloidogyne incoqnita)”

Data set [6] relates to Blumeria graminis f. sp. tritici. Nature of the data set: Test on the preventive effect against wheat powdery mildew. The class given is in vivo. The settings on record: 168 h, 5 ml per pot, wheat 1.3-leaf stage, 7 days after inoculation; for pest or weed control at 500 µg/mL: test solution A 500 ppm. As to the method:
Compounds of the present invention were dissolved in a solvent for emulsion (a mixture of Sorpol (registered trademark) 3005XL (manufactured by Toho Chemical Industry Co., Ltd.): N-methylpyrrolidone: Solvesso (registered trademark) 200 (manufactured by ExxonMobil Chemical) in a ratio of 1:5:2) to prepare 20 wt % emulsifiable concentrates. Then, distilled water was added to dilute the emulsifiable concentrates to the prescribed concentration (500 ppm), and the obtained solutions were used in the following the Test Examples 1 to 8. Wheat (varieties: Norin 61) was seeded in 90 cm^3 plastic pot, and at the 1.3-leaf stage, 5 ml per pot of test solution A of the compounds of the present invention were applied. One day after treatment, the pot was placed in an air-conditioned greenhouse (20° C.), and conidium of Blumeria graminis f. sp. tritici was inoculated to the wheat. 7 days after, the proportion of the formed lesion in the inoculated leaves were measured to calculate the control value in accordance with the same formula as in the Test Example 1. The test was carried out in duplicate.

Data set [7] has as its system Botrytis cinerea. Briefly: Test on the preventive effect against cucumber gray mold (mycelium inoculation). The class given is in vivo. The settings on record: 48 h, 5 ml per pot, cucumber cotyledon, agar block inoculation, 2 days at 20° C.; for pest or weed control at 500 µg/mL: test solution A 500 ppm. As to the method:
as §1, with “applied. On the next day,” for “applied. After drying in air,”, “containing Botrytis cinerea” for “containing Sclerotinia sclerotiorum”, “inoculated on” for “inoculated to”, “the cotyledon” for “the seed leaves”, “sheet, then” for “sheet, and”, “2 days. Thus” for “2 days, thus”

Bounds are passed on as bounds.

With `O=C(NCC(CC(F)(F)F)c1ncc(C#CC2CC2)cc1Cl)c1ccccc1C(F)(F)F` (stereo not drawn) [1-010], the pest or weed control at 500 µg/mL (in data set [1]; in data set [2]; in the data set on Botrytis cinerea [3]; in the data set with Sclerotinia sclerotiorum) was not below 70% each time. Further, the pest or weed control at 100 µg/mL in data set [4] and in data set [5] was not below 50% in each case.

On to `CCOC(c1ncc(C#CC2CC2)cc1Cl)C(C)NC(=O)c1ccccc1C(F)(F)F` (stereo not drawn) [1-026], for which the pest or weed control at 500 µg/mL (in [1]; in data set [6]; with Botrytis cinerea [7]; in [2]; in the data set on Botrytis cinerea [3]; in the data set with Sclerotinia sclerotiorum) was not below 70% throughout.

For the molecule `CC(NC(=O)c1ccccc1C(F)(F)F)C(OCC(F)(F)F)c1ncc(C#CC2CC2)cc1Cl` (stereo not drawn) [1-027], the pest or weed control at 500 µg/mL (in [1]; in [6]; in the data set on Botrytis cinerea [7]; in data set [2]; in the data set with Botrytis cinerea [3]; in the data set with Sclerotinia sclerotiorum) was not below 70% each time.

On to `CC(NC(=O)c1ccccc1C(F)(F)F)C(SCC(F)(F)F)c1ncc(C#CC2CC2)cc1Cl` (stereo not drawn) [1-032], for which the pest or weed control at 500 µg/mL in [1] and in data set [2] was not below 70% throughout.

Regarding `O=C(NCC(F)(F)c1ncc(C#CC2CC2)cc1Cl)c1ncccc1C(F)(F)F` [2-001], the melting point fell in the range of 157 to 158 °C.

Consider `CCOC(c1ncc(C#CC2CC2)cc1Cl)C(C)NC(=O)c1cccnc1C(F)F` (stereo not drawn) [3-022], for which the pest or weed control at 100 ppm (in data set [1] (100 ppm solution (symbol *)); in data set [6] (100 ppm solution (symbol *)); with Botrytis cinerea [7] (100 ppm solution (symbol *)); in [2] (100 ppm solution (symbol *)); in the data set on Botrytis cinerea [3] (100 ppm solution (symbol *)); in the data set on Sclerotinia sclerotiorum (100 ppm solution (symbol *))) was not below 70% each time.

Consider `CC(NC(=O)c1cccnc1Cl)C(SCC(F)(F)F)c1ncc(C#CC2CC2)cc1Cl` (stereo not drawn) [3-032], for which the pest or weed control at 500 µg/mL (in [1]; in data set [2]; in the data set with Botrytis cinerea [3]; in the data set on Sclerotinia sclerotiorum) was not below 70% each time.

As for `CC(NC(=O)c1cccnc1C(F)(F)F)C(SCC(F)(F)F)c1ncc(C#CC2CC2)cc1Cl` (stereo not drawn) [3-034], the pest or weed control at 500 µg/mL (in data set [1]; in the data set with Botrytis cinerea [7]; in [2]; in the data set with Botrytis cinerea [3]; in the data set with Sclerotinia sclerotiorum) was not below 70% in each case.

`CC(NC(=O)c1cccnc1C(F)(F)F)C(SCC(F)(F)F)c1ncc(C#CC2CC2)cc1Cl` (stereo not drawn) [3-034a]: the melting point is 65 to 66 °C.

Molecule `CC(F)(CNC(=O)c1cccnc1C(F)F)c1ncc(C#CC2CC2)cc1Cl` (stereo not drawn) [3-038, N-[2-[3-chloro-5-(cyclopropylethynyl)pyridin-2-yl]-2-fluoropropyl]-2-(difluoromethyl)nicotinamide] came in with a melting point of 113 to 115 °C.

For the molecule `Cn1cc(C(=O)NCC(F)(F)c2ncc(C#CCF)cc2Cl)c(C(F)F)n1` [8-005, N-[2-[3-chloro-5-(3-fluoro-1-propynyl)pyridin-2-yl]-2,2-difluoroethyl]-3-difluoromethyl-1-methyl-1H-pyrazole-4-carboxamide], the melting point fell in the range of 110 to 111 °C.

The melting point is the temperature of the solid-liquid transition.
